Experiments:
HUVECs [1] = experiment: Immunofluorescence staining of the microtubule; type: cell-based, human; details: 1 μM, 30 minutes, α-tubulin staining
Experimental: In order to confirm that test compounds are able to interfere with cells' tubulin cytoskeleton, immunofluorescence staining was performed. The effect of test compounds on the tubulin reorganization was visualised by staining of microtubules using an α-tubulin antibody and the cell nuclei using 4′,6-diamidino-2-phenylindole (DAPI).
The effect of the compounds on the microtubule disruption was examined by staining for α-tubulin. Sterile cover slips were placed in each well of a 6-well plate and 1×10^6 cells/ml (1 ml) HUVECs were seeded and allowed to attach on the cover slips overnight at 37° C. The following day the medium was removed from the wells, replaced by 1 μM of test compounds diluted in medium and incubated for 30 minutes at 37° C. Next, the medium was removed and the cells were fixed in pre-cooled methanol (1 ml) at −20° C. for 30 minutes. Then, the cells were washed twice with 1 ml PBS (5 minutes each time). The primary monoclonal antibody for a-tubulin was diluted in PBS (1:200) and added (1 ml) in each well for 1 h at room temperature (RT). After that, the cells were washed three times with 1 ml PBS and incubated with 1 ml of secondary Alexa Fluor 488 antibody diluted in PBS (1:1000) for 30 minutes at RT in the dark. The cells were washed for a further three times with 1 ml PBS and allowed to air-dry for 10 minutes. The cover slips containing the attached cells were mounted on microscopy slides using ProLong® gold antifade reagent with DAPI (for nuclear staining) and stored at 4° C. until time for analysis. Images were taken using an Olympus FV1000 Point Scanning Confocal Microscope provided by the Department of Biochemistry, TCD. Experiments were performed in duplicate at two independent times. The results were presented as images of the microtubule disruption of endothelial cells.

HUVECs [2] = experiment: Analysis of endothelial cell morphology; type: cell-based, human; details: for effect on endothelial cell morphology: 40 minutes exposure; for reversibility of the morphology effect: 3 h after drug washout
Experimental: Tubulin inhibitors are not only known for their anti-mitotic effect but also for their anti-vascular activity. Treatment with such agents was previously shown to cause vascular shutdown independently of a direct cytotoxic effect on tumour cells. […] The 1 h incubation period (after drug washout) aimed to identify any observable morphological changes of endothelial cells; however the 3 h incubation period served to indicate any signs of reversibility of this effect.
The effect of test compounds on endothelial cells' morphology was examined. 1×10^6 cells/ml HUVECs (1 ml) were seeded into 6-well plates and incubated overnight at 37° C. The next day, the medium was removed and replaced by control solutions (0.1% DMSO in medium) and test compounds diluted in fresh medium. The cells were incubated for 40 minutes at 37° C. Following that, each well was washed with medium to remove detached cells and incubated with fresh medium for a further 1 h or 3 h at 37° C. Next, the medium was removed and 0.5% crystal violet solution was prepared in 20% ethanol and 1 ml was added in each well for 15 minutes at RT. The wells were then washed 3 times with d. water (5 minutes each time). Wells were allowed to air dry and cell morphology was examined under an Olympus CKX41 inverted microscope using a x4 objective. Images were captured with an E-330 SLR camera system 1 h and 3 h after the washout of compounds. Digital images were processed using Cell̂ A software (Mason Technology, Ireland). The experiments were performed in triplicate and the results were presented as images of the morphological changes of endothelial cells after 1 h and 3 h of drug washout.

rat aortic ring cultures [3] = experiment: Aortic ring assay (anti-vascular model); type: cell-based; details: for anti-vascular effect on existing microvessel network: 100 nM
Experimental: The aortic ring assay is an ideal assay for testing the activity of anti-vascular, anti-angiogenic or pro-angiongenic agents. This method was originally developed and modified by Nicosia. The aorta can be excised from mice or rats, cut into ˜1 mm rings and cultured in either basement membrane matrix (matrigel) or collagen gel. Following incubation for several days the rings start to generate outgrowths of branching microvessels which are lined by endothelial cells and supported by pericytes and fibroblasts. The angiogenic response of the aorta is a self-limited process regulated by endogenous growth factors including bFGF [13], VEGF [14], PDGF [15] and angiopoietins.
The rat aorta model is an ex vivo assay which combines advantages of both in vitro and in vivo models. The process of angiogenesis takes place in a defined culture environment which can be easily adapted to different experimental conditions according to the requirement of the study. The cells of the aortic outgrowth have not been modified by repeated passages in culture and thus newly formed microvessels reproduce the characteristics of the vasculature formed during angiogenesis in vivo [17-18]. There is no influx of leukocytes from circulating blood therefore inflammatory complications which affect the interpretation of in vivo assays are minimised. For the purpose of this study, rat aortic ring cultures were used to investigate firstly the anti-vascular and then the anti-angiogenic activity of test compounds.
The successful growth of the aortic rings into a mircovessel network was dependent on several factors including (i) the amount of periaortic fibroadipose tissue left on the ring, (ii) the orientation of the ring, the way which the ring was embedded into the matrigel and (iii) the volume of the matrigel used.
The aortic ring assay is an ex vivo assay which allows the analyst to examine the inhibition/stimulation of angiogenesis as well as the breakdown of existing vasculature. Basement membrane matrix (matrigel) was stored at −20° C. Prior to use, matrigel vial was placed on ice and kept at 4° C. overnight in order to thaw. The matrigel was kept on ice at all times for the duration of the experiment. Aortic rings were obtained by excising the thoracic aorta of 5-10 weeks old Wistar male rats and removing the fibroadipose tissue from the aortic wall. The rings were obtained by cross-sectioning the aorta at ˜1 mm intervals, removed any blood clots by washing several times with EBM-2. Matrigel (80 μl) was placed uniformly in each well of a 12-well plate and the aortic rings were then placed individually in between the matrigel layer with the lumen perpendicular to the surface of the plate. The matrigel solution was allowed to solidify for 30-40 minutes at 37° C. and 1 ml EBM-2 medium (supplemented with 2% FBS and […] streptomycin/penicillin solution) was added to each culture. The aortic rings were kept in a humidified CO2 incubator at 37° C. and fresh medium was replaced three times a week starting from day 3. Once an established microvessel network was developed (day 7-9), test compounds diluted in EBM-2 medium (1 ml) were added to each well and incubated at 37° C. for 24 h. The cultures were monitored for microvessel breakdown over time and images were taken 1 h, 4 h and 24 h after treatment using an Olympus CKX41 inverted microscope. Images were captured with an E-330 SLR camera system and processed using Cell̂ A software. Each compound concentration was tested in duplicate. Results were presented as images showing the microvessel breakdown at each time point.

rat aortic ring cultures [4] = experiment: Aortic ring assay (anti-angiogenic effect); type: cell-based

SMILES | microtubule disruption (HUVECs [1]) | effect on endothelial cell morphology (HUVECs [2]; 0.1 μM) | reversibility of the morphology effect (HUVECs [2]) | anti-vascular effect on existing microvessel network (rat aortic ring cultures [3]; 4 h of treatment) | anti-vascular effect on existing microvessel network (rat aortic ring cultures [3]; 24 h of treatment) | anti-angiogenic effect (microvessel formation) (rat aortic ring cultures [4]; 1 nM) | anti-angiogenic effect (microvessel formation) (rat aortic ring cultures [4]; 10 nM) | anti-angiogenic effect (microvessel formation) (rat aortic ring cultures [4]; 100 nM) | effect on endothelial cell morphology (HUVECs [2]; 1 μM) | anti-vascular effect on established microvessel network (rat aortic ring cultures [3]; 0.1 μM) | anti-vascular effect on established microvessel network (rat aortic ring cultures [3]; 1 μM, 24 h incubation) | anti-vascular effect on established microvessel network (rat aortic ring cultures [3]; 1 nM) | anti-vascular effect on established microvessel network (rat aortic ring cultures [3]; 10 nM) | anti-vascular effect on established microvessel network (rat aortic ring cultures [3]; 50 nM, 4 h of treatment) | anti-vascular effect on established microvessel network (rat aortic ring cultures [3]; 50 nM, 24 h) | anti-angiogenic effect (microvessel formation) (rat aortic ring cultures [4]; 50 nM)
COc1ccc(C2=CC(=O)CCc3c2cc(OC)c(OC)c3OC)cc1O [Compound 1, (Z)-8,9-dihydro-5-(3-hydroxy-4-methoxyphenyl)-1,2,3-trimethoxybenzo[7]annulen-7-one] | Microtubule disruption was observed | modifying the cells' structure | cells regained their shape | evident changes in the microvessels' structure | greater disruption | no inhibitory effect | significantly (p<0.01) inhibited the formation of microvessels | significantly (p<0.01) inhibited the formation of microvessels | – | – | – | – | – | – | – | –
COc1ccc(C2=CC(=O)CCc3c2cc(OC)c(OC)c3OC)cc1OC(=O)C(CC(C)C)NC(=O)C(O)C(N)Cc1ccccc1.Cl (stereo not shown) [Compound 44] | induce microtubule disruption | minor effect | reversible effect | – | – | – | slight decrease | significant (p<0.05) reduction | cell monolayer was disturbed | did not result in a clear anti-vascular effect | apparent microvessel breakdown | – | – | – | – | –
COc1ccc(C2=CC(=O)COc3c2cc(OC)c(OC)c3OC)cc1OC(=O)C(CC(C)C)NC(=O)C(O)C(N)Cc1ccccc1.Cl (stereo not shown) [Compound 45, 2-methoxy-5-(7,8,9-trimethoxy-3-oxo-2H-1-benzoxepin-5-yl)phenyl 2-(3-amino-2-hydroxy-4-phenylbutanamido)-4-methylpentanoate] | disruption of microtubule organisation | severe effect | did not seem to regain their original shape | – | – | – | insignificantly decreased | – | severe effect | – | – | did not demonstrate any obvious anti-vascular activity | did not demonstrate any obvious anti-vascular activity | sufficient to disrupt the microvessel network | more evident | almost complete inhibition
COc1ccc(C2=CC(=O)CCc3c2cc(OC)c(OC)c3OC)cc1N [Compound 28, 2-methoxy-5-(2,3,4-trimethoxy-7-oxo-6,7-dihydro-5H-benzo[7]annulen-9-yl)benzenaminium chloride] | Microtubule disruption was observed | modifying the cells' structure | cells regained their shape | evident changes in the microvessels' structure | greater disruption | – | did not demonstrate a decrease in microvessel formation | complete growth inhibition | – | – | – | – | – | – | – | complete growth inhibition

— patent US20150018566A1, “TUBULIN BINDING AGENTS” (priority 2011, published 2015)
